Experiments:
Type in all cases: in vivo, Pityophthorus juglandis
WTB [1] = assay: Trap height: clear plexiglass panel traps baited with X; conditions: 5 mg/d, 15 ml load
Method: Effect of Trap Height on Trap Catch. The flight response of WTB to clear plexiglass panel traps coated with Stikem Special (Seabright Labs, Emeryville, Calif.) and baited with 3-methyl-2-buten-1-ol (5 mg/d, 15 ml load, polyethylene bottle) located at three heights (2, 3, and 4 m above the forest floor) was tested. The traps were placed in the crowns of J. hindsii located in a native riparian stand at Shadow Cliffs Regional Park, Alameda Co., Calif. from early to mid-spring. Both sides of a single 23 cm×14 cm sheet of clear plexiglass were covered with Stikem Special adhesive and the sheet was hung from string at each of the 3 heights from a single J. hindsii branch. The aggregation pheromone bait was hung immediately above each trap. Each group of three traps was assigned a unique position within the stand and treated as a block in a completely randomized block design (N=22). Traps within a block were all collected on the same day; blocks were collected after 2 to 7 days (after periodic flights of WTB).
Statistical Analyses. Analyses of treatment effects for the tests of trap type were performed by using Friedman's non-parametric analysis of variance or a sign test, depending on the number of treatments. (See Zar, J. H. 2010. Biostatistical Analysis. 5th ed. Pearson Prentice Hall, Englewood Cliffs, N.J.) Analysis of treatment effects for the Rain•X experiment was performed by using a Wilcoxon paired sample test. Id. Multiple comparisons for experiments with more than two treatments were performed with an a posteriori Nemenyi test with experimentwise α=0.05. Id. In all cases, male and female WTB were analyzed separately. Proportions of female WTB responding to treatments were calculated and 95% confidence intervals determined by using the Clopper-Pearson method. Id.

WTB [2] = assay: Six release rate experiment, 4-unit Lindgren funnel traps; conditions: for trap catches, female WTB / trap catches, male WTB: N=99
Method: In a separate experiment, the flight response of WTB to six release rates of 3-methyl-2-buten-1-ol was tested at the same location in early summer. The six release rates were: 1) 165 mg/d, from a capped 15 ml polyethylene bottle with a 0.48 cm hole drilled in the side of the cap, charged with 15 ml 3-methyl-2-buten-1-ol (Sigma-Aldrich); 2) 15-80 mg/d from the commercial LDPE plastic pouch (Contech); 3) 5 mg/d from a capped 15 ml polyethylene bottle charged with 15 ml 3-methyl-2-buten-1-ol (Sigma-Aldrich); 4) 5 mg/d from a capped 15 ml polyethylene bottle charged with 1 ml 3-methyl-2-buten-1-ol (Sigma-Aldrich); 5) 0.2 mg/d from a 400 μl closed Eppendorf polyethylene microcentrifuge tube charged with 300 μl 3-methyl-2-buten-1-ol (Sigma-Aldrich); and 6) an unbaited control. The 15 ml polyethylene bottles were purchased from Contech Enterprises (product #100000582/583); the 400 μl polyethylene Eppendorf microcentrifuge tubes were purchased from Evergreen Scientific (product #214-3417-020, Los Angeles, Calif.). These release devices were attached to 4-unit Lindgren funnel traps as described above. The six treatments were replicated in three spatial blocks and the treatments were re-randomized among the six trap stations in a block each time the traps were emptied (nearly every day). Statistical Analyses. Analysis of treatment effects for the pouch vs. bottle experiment was done by using a sign test. (See Zar, J. H. 2010. Biostatistical Analysis. 5th ed. Pearson Prentice Hall, Englewood Cliffs, N.J.) The other four experiments were analyzed for treatment effect by using Friedman's non-parametric analysis of variance. Id. In all experiments, males and females were analyzed separately. All treatments within experiments yielding a significant treatment effect were compared by using an a posteriori Nemenyi test with experimentwise α=0.05. Id. For all experiments, differences among proportions of female WTB responding to treatments were analyzed by comparing 95% confidence intervals determined with the Clopper-Pearson method. Id.

WTB [3] = assay: Example 2 Field Test 3: X and racemic trans-pityol; conditions: 4-unit Lindgren funnel traps
Method: Finally, a flight bioassay of the effect of the compound racemic trans-“pityol” [2-(1-hydroxy-1-methylethyl)-5-methyltetrahydrofuran] was conducted in late summer/early fall at Wolfskill Experimental Orchards. Pityol is a component of the aggregation pheromone of conifer-infesting Pityophthorus species. The response of WTB to racemic trans-pityol (formulated in a polyvinylchloride plastic bubble cap release device, 40 mg load, 0.2 mg/d release rate at 20° C., product #300000272, Contech Enterprises) and pityol in combination with 3-methyl-2-buten-1-ol (release rate 15-80 mg/d, LDPE plastic pouch Contech) was tested (Table 3, Field Test 3). The four treatments were replicated in three spatial blocks and the treatments were re-randomized among the four trap stations in a block each time the traps were emptied (nearly every day).
Statistical Analyses. Analysis of treatment effects for the pouch vs. bottle experiment was done by using a sign test. (See Zar, J. H. 2010. Biostatistical Analysis. 5th ed. Pearson Prentice Hall, Englewood Cliffs, N.J.) The other four experiments were analyzed for treatment effect by using Friedman's non-parametric analysis of variance. Id. In all experiments, males and females were analyzed separately. All treatments within experiments yielding a significant treatment effect were compared by using an a posteriori Nemenyi test with experimentwise α=0.05. Id. For all experiments, differences among proportions of female WTB responding to treatments were analyzed by comparing 95% confidence intervals determined with the Clopper-Pearson method. Id.

[4] = X 15-80 mg/d, pityol 0.2 mg/d, N=93

## CC(C)=CCO [X, 3-methyl-2-buten-1-ol]
WTB [1]; clear plexiglass panel trap at 2 m
  proportion of females responding: 0.68
WTB [1]; clear plexiglass panel trap at 3 m
  proportion of females responding: 0.64
WTB [1]; clear plexiglass panel trap at 4 m
  proportion of females responding: 0.72
WTB [2]; 0.2 mg/d
  proportion of females responding: 0.66
  trap catches, female WTB: 623
  trap catches, male WTB: 323
WTB [2]; 5 mg/d (1 ml load)
  proportion of females responding: 0.71
  trap catches, female WTB: 1084
  trap catches, male WTB: 453
WTB [2]; 5 mg/d (15 ml load)
  proportion of females responding: 0.72
  trap catches, female WTB: 1534
  trap catches, male WTB: 608
WTB [2]; 165 mg/d
  proportion of females responding: 0.75
WTB [2]; 165 mg/d (15 ml load)
  trap catches, female WTB: 612
  trap catches, male WTB: 205
WTB [2]; 15-80 mg/d
  proportion of females responding: 0.77
  trap catches, female WTB: 934
  trap catches, male WTB: 285
WTB [2]; six release rates compared
  release rate giving highest flight response: highest response for both sexes was to the 5 mg/d release loaded with 15 ml of pheromone
WTB [3]
  proportion of females responding: 0.80
WTB [3]; [4]
  trap catches, female WTB: 2100
  trap catches, male WTB: 539

— patent publication US20130014428A1, “METHODS OF MONITORING AND CONTROLLING THE WALNUT TWIG BEETLE, PITYOPHTHORUS JUGLANDIS” (The United States of America as Represented by the …, priority 2011, published 2013)
